Measured values published in patent publication US4401660A, “Ester derivatives of 5-O-mycaminosyl tylonolide and method of using same” (Eli Lilly and Company, priority 1981, dated 1983).
Where two headings read alike, the source gives them in different places.

Experiments:
Pasteurella multocida = assay: Treatment of Pasteurella infections in chicks (Table V); assay type: in vivo, one-day-old chicks; conditions: 30 mg/kg by subcutaneous injection one and four hours post challenge; for mortality at 30 mg/kg: Pasteurella multocida, sc, 4 h, read-out: Deaths in Treated Chicks/Number Treated (converted)
Summary of the method: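 Dosing was 30 mg/kg by subcutaneous injection, one and four hours after challenge. Day-old chicks received 0.1 ml of a 10^-3 dilution of a 20-hour tryptose broth culture of avian P. multocida subcutaneously. Nonmedicated infected chicks served as controls, ten per group.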

Mycoplasma hyorhinis = assay: MIC, broth-dilution microtiter test (Table III); assay type: cell-based; parameters: unit not given here
Protocol: (§1) The MIC's in Table II were determined by standard agar-dilution assays. The MIC's in Table III were obtained using a conventional broth-dilution microtiter test.

[1] = tested on: Pasteurella multocida 60A; assay: MIC, broth-dilution microtiter test (Table III); assay type: cell-based; parameters: unit not given here; conditions: avian isolate
Protocol: as §1

Mycoplasma gallisepticum = assay: MIC, broth-dilution microtiter test (Table III); assay type: cell-based; parameters: unit not given here
Protocol: as §1

Mycoplasma synoviae = assay: MIC, broth-dilution microtiter test (Table III); assay type: cell-based; parameters: unit not given here
Protocol: as §1

[2] = tested on: Pasteurella multocida 17E; assay: MIC, broth-dilution microtiter test (Table III); assay type: cell-based; parameters: unit not given here; conditions: bovine isolate
Protocol: as §1

[3] = tested on: Pasteurella multocida 68C; assay: MIC, broth-dilution microtiter test (Table III); assay type: cell-based; parameters: unit not given here
Protocol: as §1

[4] = tested on: Pasteurella multocida 40G; assay: MIC, broth-dilution microtiter test (Table III); assay type: cell-based; parameters: unit not given here
Protocol: as §1

[5] = tested on: Pasteurella haemolytica 23C; assay: MIC, broth-dilution microtiter test (Table III); assay type: cell-based; parameters: unit not given here
Protocol: as §1

[6] = tested on: Pasteurella haemolytica 41D; assay: MIC, broth-dilution microtiter test (Table III); assay type: cell-based; parameters: unit not given here
Protocol: as §1

[7] = tested on: Pasteurella multocida 22A; assay: MIC, broth-dilution microtiter test (Table III); assay type: cell-based; parameters: unit not given here
Protocol: as §1

Staphylococcus aureus = assay: MIC, broth-dilution microtiter test (Table III); assay type: cell-based; parameters: unit not given here
Protocol: as §1

[8] = tested on: Pasteurella haemolytica 22C; assay: MIC, broth-dilution microtiter test (Table III); assay type: cell-based; parameters: unit not given here
Protocol: as §1

Streptococcus sp. 80 = assay: MIC, broth-dilution microtiter test (Table III); assay type: cell-based; parameters: unit not given here
Protocol: as §1

[9] = tested on: Streptococcus pyogenes C203; assay: ED50 in mice with experimental infections (Table IV); assay type: in vivo; conditions: doses given 1 and 4 hours postinfection; for ED50: Streptococcus pyogenes
Summary of the method: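 Read-out is ED50, the mg/kg dose protecting half of infected mice; values refer to each of two doses, given 1 and 4 hours after infection.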

[10] = tested on: Streptococcus Group D X66; assay: MIC, standard agar-dilution assay (Table II); assay type: cell-based; parameters: unit not given here
Protocol: as §1

[11] = tested on: Staphylococcus aureus X1.1; assay: MIC, standard agar-dilution assay (Table II); assay type: cell-based; parameters: unit not given here
Protocol: as §1

[12] = tested on: Streptococcus pneumoniae Park I; assay: MIC, standard agar-dilution assay (Table II); assay type: cell-based; parameters: unit not given here
Protocol: as §1

[13] = tested on: Staphylococcus aureus X400; assay: MIC, standard agar-dilution assay (Table II); assay type: cell-based; parameters: unit not given here; conditions: Staphylococcus aureus X400, methicillin-resistant strain
Protocol: as §1

[14] = tested on: Haemophilus influenzae R252; assay: MIC, standard agar-dilution assay (Table II); assay type: cell-based; parameters: unit not given here; conditions: Haemophilus influenzae R252, ampicillin-resistant strain
Protocol: as §1

[15] = tested on: Streptococcus pyogenes C203; assay: MIC, standard agar-dilution assay (Table II); assay type: cell-based; parameters: unit not given here
Protocol: as §1

[16] = tested on: Staphylococcus aureus S13E; assay: MIC, standard agar-dilution assay (Table II); assay type: cell-based; parameters: unit not given here
Protocol: as §1

[17] = tested on: Staphylococcus aureus V41; assay: MIC, standard agar-dilution assay (Table II); assay type: cell-based; parameters: unit not given here; conditions: Staphylococcus aureus V41, penicillin-resistant strain
Protocol: as §1

[18] = tested on: Staphylococcus epidermidis EPI2; assay: MIC, standard agar-dilution assay (Table II); assay type: cell-based; parameters: unit not given here
Protocol: as §1

[19] = tested on: Streptococcus Group D 9960; assay: MIC, standard agar-dilution assay (Table II); assay type: cell-based; parameters: unit not given here
Protocol: as §1

[20] = tested on: Haemophilus influenzae Holt; assay: MIC, standard agar-dilution assay (Table II); assay type: cell-based; parameters: unit not given here; conditions: ampicillin-sensitive strain
Protocol: as §1

[21] = tested on: Staphylococcus epidermidis EPI1; assay: MIC, standard agar-dilution assay (Table II); assay type: cell-based; parameters: unit not given here
Protocol: as §1

[22] = C203, oral, read-out: ED50, Oral
[23] = C203, sc, subcutaneous, read-out: ED50, Subcutaneous

With `CCC1OC(=O)CC(O)C(C)C(OC2OC(C)C(O)C(N(C)C)C2O)C(CC=O)CC(C)C(=O)C=CC(C)=CC1COC(C)=O` (stereo not drawn) [Compound 13, 23-O-Acetyl-OMT] the mortality at 30 mg/kg (Pasteurella multocida) was 0%, the “minimal inhibitory concentration (MIC)” value (Mycoplasma hyorhinis) was 0.78 and the “minimal inhibitory concentration (MIC)” value [1] was 1.56. For the same compound, the “minimal inhibitory concentration (MIC)” value (Mycoplasma gallisepticum) was 0.05, the “minimal inhibitory concentration (MIC)” value (Mycoplasma synoviae) was 0.097 and the “minimal inhibitory concentration (MIC)” value [2] was 1.56. The “minimal inhibitory concentration (MIC)” value [3] was 1.56, the “minimal inhibitory concentration (MIC)” value [4] was 3.12 and the “minimal inhibitory concentration (MIC)” value [5] was 3.12. The “minimal inhibitory concentration (MIC)” value [6] was 6.25, the “minimal inhibitory concentration (MIC)” value [7] was 1.56 and the “minimal inhibitory concentration (MIC)” value (Staphylococcus aureus) was 0.39. For the same compound, the “minimal inhibitory concentration (MIC)” value [8] was 3.12, the “minimal inhibitory concentration (MIC)” value (Streptococcus sp. 80) was 0.195 and the ED50 [9, 22] was 109 mg/kg. The ED50 [9, 23] was 3.3 mg/kg, the “minimal inhibitory concentration (MIC)” value [10] was 0.25 and the “minimal inhibitory concentration (MIC)” value [11] was 0.25. For the same compound, the “minimal inhibitory concentration (MIC)” value [12] was 0.125, the “minimal inhibitory concentration (MIC)” value [13] was 0.5 and the “minimal inhibitory concentration (MIC)” value [14] was 4. The “minimal inhibitory concentration (MIC)” value [15] was 0.125, the “minimal inhibitory concentration (MIC)” value [16] was 0.25 and the “minimal inhibitory concentration (MIC)” value [17] was 0.25. The “minimal inhibitory concentration (MIC)” value [18] was 0.25, the “minimal inhibitory concentration (MIC)” value [19] was 0.5 and the “minimal inhibitory concentration (MIC)” value [20] was 1. The “minimal inhibitory concentration (MIC)” value [21] was 0.25.
For `CCC1OC(=O)CC(O)C(C)C(OC2OC(C)C(O)C(N(C)C)C2O)C(CC=O)CC(C)C(=O)C=CC(C)=CC1COC(=O)OC` (stereo not drawn) [Compound 74], the mortality at 30 mg/kg (Pasteurella multocida) was 0%, the “minimal inhibitory concentration (MIC)” value (Mycoplasma hyorhinis) was 0.78 and the “minimal inhibitory concentration (MIC)” value [1] was 1.56. For the same compound, the “minimal inhibitory concentration (MIC)” value (Mycoplasma gallisepticum) was < 0.048, the “minimal inhibitory concentration (MIC)” value (Mycoplasma synoviae) was 0.195 and the “minimal inhibitory concentration (MIC)” value [2] was 1.56. For the same compound, the “minimal inhibitory concentration (MIC)” value [3] was 12.5, the “minimal inhibitory concentration (MIC)” value [4] was 12.5 and the “minimal inhibitory concentration (MIC)” value [5] was 3.12. The “minimal inhibitory concentration (MIC)” value [6] was 1.56, the “minimal inhibitory concentration (MIC)” value [7] was 25 and the “minimal inhibitory concentration (MIC)” value (Staphylococcus aureus) was 1.56. For the same compound, the “minimal inhibitory concentration (MIC)” value [8] was 6.25, the “minimal inhibitory concentration (MIC)” value (Streptococcus sp. 80) was 0.39 and the ED50 [9, 22] was > 100 mg/kg. The ED50 [9, 23] was 3 mg/kg, the “minimal inhibitory concentration (MIC)” value [10] was 0.5 and the “minimal inhibitory concentration (MIC)” value [11] was 0.25. The “minimal inhibitory concentration (MIC)” value [12] was 0.03, the “minimal inhibitory concentration (MIC)” value [13] was 0.5 and the “minimal inhibitory concentration (MIC)” value [14] was 2. For the same compound, the “minimal inhibitory concentration (MIC)” value [15] was 0.25, the “minimal inhibitory concentration (MIC)” value [16] was 0.25 and the “minimal inhibitory concentration (MIC)” value [17] was 0.25. For the same compound, the “minimal inhibitory concentration (MIC)” value [18] was 0.25, the “minimal inhibitory concentration (MIC)” value [19] was 0.25 and the “minimal inhibitory concentration (MIC)” value [20] was 1. The “minimal inhibitory concentration (MIC)” value [21] was 0.25.
`CCC1OC(=O)CC(O)C(C)C(OC2OC(C)C(O)C(N(C)C)C2O)C(CC=O)CC(C)C(=O)C=CC(C)=CC1COC(=O)C(N)c1ccccc1` (stereo not drawn) [Compound 57] was tested, and the “Deaths in Treated Chicks/Number Treated” value (Pasteurella multocida) was 0/10, the “minimal inhibitory concentration (MIC)” value (Mycoplasma hyorhinis) was 6.25 and the “minimal inhibitory concentration (MIC)” value [1] was 3.12. For the same compound, the “minimal inhibitory concentration (MIC)” value (Mycoplasma gallisepticum) was 0.195, the “minimal inhibitory concentration (MIC)” value (Mycoplasma synoviae) was 0.39 and the “minimal inhibitory concentration (MIC)” value [2] was 6.25. For the same compound, the “minimal inhibitory concentration (MIC)” value [3] was 3.12, the “minimal inhibitory concentration (MIC)” value [4] was 3.12 and the “minimal inhibitory concentration (MIC)” value [5] was 6.25. The “minimal inhibitory concentration (MIC)” value [6] was 6.25, the “minimal inhibitory concentration (MIC)” value [7] was 3.12 and the “minimal inhibitory concentration (MIC)” value (Staphylococcus aureus) was 3.12. For the same compound, the “minimal inhibitory concentration (MIC)” value [8] was 6.25, the “minimal inhibitory concentration (MIC)” value (Streptococcus sp. 80) was 0.39 and the “ED50, Oral” value ([9]; oral) was 91 mg/kg × 2. The “ED50, Subcutaneous” value ([9]; subcutaneous) was 2.6 mg/kg × 2, the “minimal inhibitory concentration (MIC)” value [10] was 0.5 and the “minimal inhibitory concentration (MIC)” value [11] was 0.5. For the same compound, the “minimal inhibitory concentration (MIC)” value [12] was 0.03, the “minimal inhibitory concentration (MIC)” value [13] was 1 and the “minimal inhibitory concentration (MIC)” value [14] was 2. The “minimal inhibitory concentration (MIC)” value [15] was 0.125, the “minimal inhibitory concentration (MIC)” value [16] was 0.5 and the “minimal inhibitory concentration (MIC)” value [17] was 0.5. For the same compound, the “minimal inhibitory concentration (MIC)” value [18] was 1, the “minimal inhibitory concentration (MIC)” value [19] was 0.5 and the “minimal inhibitory concentration (MIC)” value [20] was 2. The “minimal inhibitory concentration (MIC)” value [21] was 0.5.
`CCC1OC(=O)CC(O)C(C)C(OC2OC(C)C(O)C(N(C)C)C2O)C(CC=O)CC(C)C(=O)C=CC(C)=CC1COC(=O)[C@H](NC(=O)OC(C)(C)C)c1ccccc1` (stereo partly drawn) [Compound 40, 23-O-(D-t-BOC-Phenylglycyl)-OMT] was tested, and the mortality at 30 mg/kg (Pasteurella multocida) was 100%, the “minimal inhibitory concentration (MIC)” value (Mycoplasma hyorhinis) was 0.39 and the “minimal inhibitory concentration (MIC)” value [1] was 6.25. For the same compound, the “minimal inhibitory concentration (MIC)” value (Mycoplasma gallisepticum) was < 0.05, the “minimal inhibitory concentration (MIC)” value [2] was 6.25 and the “minimal inhibitory concentration (MIC)” value [3] was 6.25. For the same compound, the “minimal inhibitory concentration (MIC)” value [4] was 6.25, the “minimal inhibitory concentration (MIC)” value [5] was 12.5 and the “minimal inhibitory concentration (MIC)” value [6] was 12.5. For the same compound, the “minimal inhibitory concentration (MIC)” value [7] was 12.5, the “minimal inhibitory concentration (MIC)” value (Staphylococcus aureus) was 0.78 and the “minimal inhibitory concentration (MIC)” value [8] was 12.5. For the same compound, the “minimal inhibitory concentration (MIC)” value (Streptococcus sp. 80) was 0.195, the ED50 [9, 22] was 116 mg/kg and the ED50 [9, 23] was 5 mg/kg. For the same compound, the “minimal inhibitory concentration (MIC)” value [10] was 0.5, the “minimal inhibitory concentration (MIC)” value [11] was 0.5 and the “minimal inhibitory concentration (MIC)” value [12] was 0.06. For the same compound, the “minimal inhibitory concentration (MIC)” value [13] was 1, the “minimal inhibitory concentration (MIC)” value [14] was 2 and the “minimal inhibitory concentration (MIC)” value [15] was 0.125. The “minimal inhibitory concentration (MIC)” value [16] was 0.5, the “minimal inhibitory concentration (MIC)” value [17] was 1 and the “minimal inhibitory concentration (MIC)” value [18] was 0.5. The “minimal inhibitory concentration (MIC)” value [19] was 0.5, the “minimal inhibitory concentration (MIC)” value [20] was 2 and the “minimal inhibitory concentration (MIC)” value [21] was 0.5.
